SMILES strings stand for the structures.

For orientation: IC50 means the concentration that inhibits the measured activity by half.

The assay deals with IL-1β release upon NLRP3 activation in peripheral blood mononuclear cells (PBMC). The assay can be described thus: PBMC IC50 Determination Assay. It is filed as cell-based. To be noted: Homo sapiens; PBMC from buffy coats, LPS 3 h, compound 30 min, then ATP (5 mM) or nigericin (10 μM) 1 h; IL-1β in media by ELISA (Protocol A) or HTRF (Protocol B).
In turn, `CC1CN(CC(=O)Nc2ncccn2)C(=O)c2cc(C3CC3)sc21` (centres unmarked) [Compound 70, 2-(2-Cyclopropyl-7-methyl-4-oxo-6,7-dihydrothieno[3,2-c]pyridin-5(4H)-yl)-N-(pyrimidin-2-yl)acetamide] had an IC50 of 3000 to 10000 nM.

Take `CCc1cc2c(s1)C(=O)N(CC(=O)Nc1ncc3c(n1)[nH]c(=O)n3C)CC21CC1` [Compound 71, 2-(2′-Ethyl-7′-oxo-5′H-spiro[cyclopropane-1,4′-thieno[2,3-c]pyridin]-6′(7′H)-yl)-N-(7-methyl-8-oxo-8,9-dihydro-7H-purin-2-yl)acetamide]: the IC50 fell in the range of 1000 to 3000 nM. In turn, `CNc1nc2c(s1)C(=O)N(CC(=O)Nc1ncccn1)CC21CC1` [Compound 72, 2-(2′-(Methylamino)-4′-oxo-4′H-spiro[cyclopropane-1,7′-thiazolo[5,4-c]pyridin]-5′(6′H)-yl)-N-(pyrimidin-2-yl)acetamide] showed a concentration for half-maximal inhibition (IC50) of 3000 to 10000 nM. The figure for `CCNc1nc2c(s1)C(=O)N(CC(=O)Nc1ncccn1)CC2C` (centres unmarked) [Compound 73, 2-(2-(Ethylamino)-7-methyl-4-oxo-6,7-dihydrothiazolo[5,4-c]pyridin-5(4H)-yl)-N-(pyrimidin-2-yl)acetamide] is 10000 to 50000 nM; for `CNc1cc2c(s1)C(=O)N(CC(=O)Nc1ncccn1)CC21CC1` [Compound 74, 2-(2′-(Methylamino)-7′-oxo-5′H-spiro[cyclopropane-1,4′-thieno[2,3-c]pyridin]-6′(7′H)-yl)-N-(pyrimidin-2-yl)acetamide] it is 100 to 1000 nM; for `O=C(CN1CC2(CC2)c2cc(CC(F)F)sc2C1=O)Nc1ncccn1` [Compound 75, 2-(2′-(2,2-Difluoroethyl)-7′-oxo-5′H-spiro[cyclopropane-1,4′-thieno[2,3-c]pyridin]-6′(7′H)-yl)-N-(pyrimidin-2-yl)acetamide] it is 1000 to 3000 nM. Compound `O=C(CN1CC2(CC2)c2cc(C3CC3)sc2C1=O)Nc1ncc(F)cn1` [Compound 76, 2-(2′-Cyclopropyl-7′-oxo-5′H-spiro[cyclopropane-1,4′-thieno[2,3-c]pyridin]-6′(7′H)-yl)-N-(5-fluoropyrimidin-2-yl)acetamide] yielded a half-maximal inhibitory concentration (IC50) of 100 to 1000 nM. The figure for `C[C@@H]1CN(CC(=O)Nc2ncccn2)C(=O)c2sc(C3CC3)nc21` [Compound 77] is 1000 to 3000 nM.

The values above are taken from US20260008780A1, “SUBSTITUTED 3,4-DIHYDROISOQUINOLIN-1(2H)-ONE DERIVATIVES AND RELATED USES” (NodThera Limited, priority 2022, published 2026).
